The source of these data is article PMC5830615 (Scientific Reports, 2018).

Test [1] deals with soluble adenylyl cyclase (sAC). Description: FRET assay of soluble adenylyl cyclase activity in HEK293-sAC cells transduced with H188. It is filed as cell-based. The protocol: These actions of Rp-8-Br-cAMPS-pAB were not reproduced by the negative control 4-acetoxybenzy alcohol (4-Abn-OH) that lacks the cAMP moiety (Fig. 3e1,e2)[36].
HEK293-H188-C24 cells stably expressing H188 were plated at 80% confluence on 96-well clear-bottom assay plates (Costar 3904, Corning, NY) coated with rat tail collagen (Collaborative Biomedical Products, Bedford, MA). HEK293 cells stably expressing select GPCRs were transduced for 16 hours with H188 virus at a density of ca. 60,000 cells/well under conditions in which the multiplicity of infection (m.o.i.) was equivalent to 25 viral particles per cell. For all assays, the culture media was then removed and replaced by 200 μl/well of a standard extracellular saline (SES) solution supplemented with 11 mM glucose and 0.1% BSA[31],[34]–[36]. The composition of the SES was (in mM): 138 NaCl, 5.6 KCl, 2.6 CaCl2, 1.2 MgCl2, 11.1 glucose, and 10 Hepes (295 mOsmol, pH 7.4). Real-time kinetic assays of FRET were performed using a FlexStation 3 microplate reader equipped with monochromators (Molecular Devices, Sunnyvale, CA). Excitation light was delivered at 435/9 nm (455 nm cut-off), and emitted light was detected at 485/15 nm (CFP) or 535/15 nm (YFP)[31],[34]–[36]. […] The 485/535 emission ratio was calculated for each well and the mean +/− s.d. values for 12 wells were averaged. […]

A further test relates to wild-type HEK293 cells. Description: FRET cAMP assay in wild-type HEK293 cells transduced with H188 (negative control). It is filed as cell-based, human. As to conditions: WT HEK293 lacking recombinant receptors, H188 virus; IBMX at 50 μM. As for the experimental part: (§1) HEK293-H188-C24 cells stably expressing H188 were plated at 80% confluence on 96-well clear-bottom assay plates (Costar 3904, Corning, NY) coated with rat tail collagen (Collaborative Biomedical Products, Bedford, MA). HEK293 cells stably expressing select GPCRs were transduced for 16 hours with H188 virus at a density of ca. 60,000 cells/well under conditions in which the multiplicity of infection (m.o.i.) was equivalent to 25 viral particles per cell. For all assays, the culture media was then removed and replaced by 200 μl/well of a standard extracellular saline (SES) solution supplemented with 11 mM glucose and 0.1% BSA[31],[34]–[36]. The composition of the SES was (in mM): 138 NaCl, 5.6 KCl, 2.6 CaCl2, 1.2 MgCl2, 11.1 glucose, and 10 Hepes (295 mOsmol, pH 7.4). Real-time kinetic assays of FRET were performed using a FlexStation 3 microplate reader equipped with monochromators (Molecular Devices, Sunnyvale, CA). Excitation light was delivered at 435/9 nm (455 nm cut-off), and emitted light was detected at 485/15 nm (CFP) or 535/15 nm (YFP)[31],[34]–[36]. The emission intensities were the averages of 12 excitation flashes for each time point per well.
For orientation: Changes in cAMP serve as a functional read-out for many G protein-coupled receptors.

The test system of a further test is human GLP-1R. Description: FRET cAMP assay in HEK293-GLP-1R cells (stable human GLP-1R) virally transduced with H188. As to conditions: HEK293-GLP-1R cells transduced with H188. The format is cell-based. The protocol:
as §1

The subject of test [2] is H188 (Epac1-based cAMP biosensor). Description: FRET response of biosensor H188 to cAMP analogs and Epac inhibitors in HEK293-H188-C24 cells. The format is cell-based. An excerpt:
(§2) H188 contains the cAMP sensor Epac1 in which the full-length protein is truncated to remove the Disheveled, Egl-10, and Pleckstrin (DEP) membrane-targeting domain so that its expression is confined largely to the cytoplasm (Fig. 2a,b)[30]. T781A and F782A mutations introduced within the CDC25 homology domain disrupt guanine nucleotide exchange factor (GEF) activity so that binding of cAMP to H188 is not linked to downstream signaling events mediated by the Epac1 effector protein Rap1 GTPase (Fig. 2a)[30]. In H188 the Epac1 backbone is flanked by an mTurquoise2Δ FRET donor chromophore at the N-terminus, and tandem cp173 Venus-Venus FRET acceptor chromophores at the C-terminus (Fig. 2a). Binding of cAMP reduces FRET so that when exciting with 440 nm light, there is an increase of 485 nm (mTuquoise2Δ) and a decrease of 535 nm (cp173 Venus-Venus) emission fluorescence. This ΔFRET is measured as an increase of the 485/535 nm FRET ratio.
HEK293-H188-C24 cells stably expressing H188 were plated at 80% confluence on 96-well clear-bottom assay plates (Costar 3904, Corning, NY) coated with rat tail collagen (Collaborative Biomedical Products, Bedford, MA). HEK293 cells stably expressing select GPCRs were transduced for 16 hours with H188 virus at a density of ca. 60,000 cells/well under conditions in which the multiplicity of infection (m.o.i.) was equivalent to 25 viral particles per cell. For all assays, the culture media was then removed and replaced by 200 μl/well of a standard extracellular saline (SES) solution supplemented with 11 mM glucose and 0.1% BSA[31],[34]–[36]. The composition of the SES was (in mM): 138 NaCl, 5.6 KCl, 2.6 CaCl2, 1.2 MgCl2, 11.1 glucose, and 10 Hepes (295 mOsmol, pH 7.4). Real-time kinetic assays of FRET were performed using a FlexStation 3 microplate reader equipped with monochromators (Molecular Devices, Sunnyvale, CA). Excitation light was delivered at 435/9 nm (455 nm cut-off), and emitted light was detected at 485/15 nm (CFP) or 535/15 nm (YFP)[31],[34]–[36]. The emission intensities were the averages of 12 excitation flashes for each time point per well. Test solutions dissolved in SES were placed in V-bottom 96-well plates (Greiner Bio-One, Monroe, NC), and an automated pipetting procedure was used to transfer 50 μl of each test solution to each well of the assay plate containing monolayers of these cells. The 485/535 emission ratio was calculated for each well and the mean +/− s.d. values for 12 wells were averaged. To facilitate comparisons amongst different experiments, these FRET ratio values were normalized using baseline subtraction so that a y-axis value of 1 corresponds to the initial baseline FRET ratio, whereas a value of 2 corresponds to a doubling of the FRET ratio. The time course of the ΔFRET ratio was plotted after exporting data to Origin 8.0 (OriginLab, Northampton, MA). Origin 8.0 was also used for generation of Hill plots describing dose-response relationships.

For test [3], the system named is HEK293-H188-C24 cells (cAMP production). Description: High-throughput FRET assay of cAMP, forskolin in HEK293-H188-C24 cells. The format is cell-based. As to conditions: Homo sapiens; HEK293-H188-C24 monolayers, 96-well microplate reader, 485/535 nm FRET ratio; read-out: EC50 of forskolin for H188 ΔFRET (sensitivity).
Description: as §2
HEK293-H188-C24 cells stably expressing H188 were plated at 80% confluence on 96-well clear-bottom assay plates (Costar 3904, Corning, NY) coated with rat tail collagen (Collaborative Biomedical Products, Bedford, MA). […] Real-time kinetic assays of FRET were performed using a FlexStation 3 microplate reader equipped with monochromators (Molecular Devices, Sunnyvale, CA). […]

The subject of another test is rat GIP receptor. Description: FRET cAMP assay in HEK293 cells stably expressing GIP receptor, transduced with H188. The settings on record: GIP 3 nM. The format is cell-based. The protocol: as §1
For another test, the system named is rat glucagon receptor. Description: FRET cAMP assay in HEK293 cells stably expressing glucagon receptor, transduced with H188. It is filed as cell-based. The settings on record: Glucagon 3 nM. As for the experimental part: as §1

In the case of `CC(C)Cn1c(=O)n(C)c(=O)c2[nH]cnc21` [IBMX, isobutylmethylxanthine], the “Effect on levels of cAMP in HEK293-sAC cells” value in test [1] (IBMX 50 μM, H188 by viral transduction) was “raised levels of cAMP”. In addition, in the test on wild-type HEK293 cells, the “Effect on levels of cAMP in wild-type HEK293 cells” value is “failed to raise levels of cAMP”. Also, the “Effect on the cAMP-elevating action of GLP-1” value in the test with human GLP-1R is reported as “potentiated the action of GLP-1”.

As to `Nc1nc(Cl)cc(N(Cc2ccsc2)C2CC2)n1` [LRE1], in test [1] (LRE1 50 μM versus IBMX 50 μM), the “Effect on IBMX-induced rise of cAMP in HEK293-sAC cells” value is recorded as “blocked”. As for `Cl.c1ccc(C2CCCC2NC2=NCCCCCCCCCCC2)cc1` (stereo not shown) [MDL-12,330 A], in the test with human GLP-1R, the “Effect on the cAMP-elevating action of GLP-1” value is “suppressed the action of GLP-1”. In the case of `CC(=O)Oc1ccc(CSP2(=O)OC[C@H]3O[C@@H](n4c(Br)nc5c(N)ncnc54)[C@H](O)[C@@H]3O2)cc1` (stereo partly shown) [Rp-8-Br-cAMPS-pAB], in test [2], the “Effect on baseline FRET ratio when administered alone” value is given as “weak partial agonist effect” and the “Effect on ΔFRET measured in response to forskolin” value was “inhibited the ΔFRET”.

Usually EC50 stands for the concentration giving half of the maximal effect. On to `C=C[C@@]1(C)CC(=O)[C@]2(O)[C@@]3(C)[C@@H](O)CCC(C)(C)[C@@H]3[C@H](O)[C@H](OC(C)=O)[C@@]2(C)O1` [forskolin], for which the EC50 in test [3] was 500 nM. In the case of “gastric inhibitory polypeptide (YAEGTFISDYSIAMDKIHQQDFVNWLLAQKGKKNDWKHNITQ) [GIP, hormone]”, the “Effect on cAMP at GIP receptor, 3 nM” value in the test on rat GIP receptor was “did raise levels of cAMP”.

For glucagon, the “Effect on cAMP at glucagon receptor, 3 nM” value in the test with rat glucagon receptor is recorded as “did raise levels of cAMP”.
